Assay results reported in patent US20130261077A1 (priority 2012, published 2013).

molecular target: T1, FimH-CRD (Escherichia coli, UniProt P08191); assay: Competitive binding assay by fluorescence polarization, assay 2 (compounds prepared by robotics, plates frozen and thawed)
T1 construct: The first 177 amino acids of the FimH protein; thrombin tag (printed as 'fusion protein with thrombin') (cleaved yes); made in house; host or cells: bacteria (pET21b plasmid)
Description: The first 177 amino acids of the FimH protein were expressed as a fusion protein with thrombin in a pET21b plasmid in bacteria. This FimH protein sequence contains the carbohydrate recognition domain (CRD) and shall be termed FimH-CRD. Following bacterial expression of the protein, the FimH-CRD protein was purified to homogeneity and the thrombin tag removed by protease cleavage. A competitive binding assay by fluorescence polarization was performed using 5 nM of the Alexa 647 mannoside probe and 60 nM of the FimH-CRD. The samples are assayed in a low volume 384 well microtiter plate in a final volume of 20 μl. The final assay buffer conditions are the following, 50 mM Tris-Cl, ph 7.0, 100 mM NaCl, 1 mM EDTA, 5 mM β-mercaptoethanol, 0.05% BSA and 2.5% DMSO. Two assays are performed for FimH, termed assay 1 or assay 2. The assay conditions are the same for both assays except the following: assay 1 has compounds prepared by manual dilution in a serial dilution factor with 12-point dose response while assay 2 has compounds prepared by a robotics system also through a serial dilution factor (12 point dose response) and initially prepared in duplicate in 384 well-Corning polypropylene round bottom plates. The assay 2 plates have compound which is then frozen and must be thawed prior to use. Initially the Alexa 647 probe and the FimH-CRD are added to the assay buffer and then 0.5 μl of test compound (assay 1 or 2) between 0.4 nM to 75 μM final concentration are added (12 point titration with 3-fold serial dilution). Control wells for the Alexa 647 probe are prepared with the same conditions except for the addition of the FimH-CRD protein. Plates are then incubated for 5 hrs at room temperature in the dark and under humid conditions to prevent drying. Plates are read using the SpectraMax Paradigm multi-mode plate reader and the appropriate fluorescent polarization detection cartridge (Alexa-647).
Alexa 647 mannoside probe is prepared using the similar procedure reported for FAM mannoside (Han, Z. et. al., 2010, J. Med. Chem., 53, 4779) and is described in the scheme below.
To a blue colored stirred solution of (2S,3S,4S,5S,6R)-2-(4-aminobutoxy)-6-(hydroxymethyl)tetrahydropyran-3,4,5-triol (2.21 mg, 0.009 mmol) and the (2E)-2-[(2E,4E)-5-[3,3-dimethyl-5-sulfonato-1-(3-sulfonatopropyl)indol-1-ium-2-yl]penta-2,4-dienylidene]-3-[6-(2,5-dioxopyrrolidin-1-yl)oxy-6-oxo-hexyl]-3-methyl-1-(3-sulfonatopropyl)indoline-5-sulfonate (Potassium Ion (3)) (4.9 mg, 0.0044 mmol) in DMF (44 μL) is added Et3N (5.4 mg, 7.0 μL, 0.053 mmol) at RT. The solution is stirred at room temperature over night, concentrated, dissolved in water and purified on 12 g C-18 silica gel cartridge on Isolera system using acetonitrile in water (0 to 40%, 10 CV) and followed by lyophilization to afford Alexa 647 mannoside probe (3.3 mg, 34%) as deep blue solid.
The Kd values of the compounds are determined from dose response curves using twelve concentrations per compound in duplicate. Curves are fitted to data points using Fluorescence Polarization competitive displacement analysis, and Kds are interpolated from the resulting curves using GraphPad Prism software, version […] (GraphPad software Inc., San Diego, Calif., USA).

T1 sequence (P08191 22-177): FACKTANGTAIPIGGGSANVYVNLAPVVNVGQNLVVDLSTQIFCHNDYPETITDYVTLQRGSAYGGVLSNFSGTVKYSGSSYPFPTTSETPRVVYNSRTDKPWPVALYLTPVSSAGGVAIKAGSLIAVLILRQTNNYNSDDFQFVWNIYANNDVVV

Point of comparison: `OC[C@H]1OC(c2ccc(OCc3ccc(F)cc3)cc2)[C@@H](O)[C@@H](O)[C@@H]1O` (some centres unmarked) [Compound 237], Kd 7.9 ± 1.6 nM. Against it:
- COCCOCCNC(=O)Cc1nnc(-c2ccc(-c3cccc([C@H]4O[C@H](CO)[C@@H](O)[C@H](O)[C@@H]4O)c3)cc2)o1 [Compound 182, N-(2-(2-methoxyethoxy)ethyl)-2-(5-(3′-((2R,3S,4R,5S,6R)-3,4,5-trihydroxy-6-(hydroxymethyl)tetrahydro-2H-pyran-2-yl)-[1,1′-biphenyl]-4-yl)-1,3,4-oxadiazol-2-yl)acetamide] — 2.6-fold higher, 20.2 ± 4.7 nM
- COc1cc(-c2nnc(C)o2)ccc1-c1cccc([C@H]2O[C@H](CO)[C@@H](O)[C@H](O)[C@@H]2O)c1C [Compound 107, (2R,3S,4R,5S,6R)-2-(hydroxymethyl)-6-[3-[2-methoxy-4-(5-methyl-1,3,4-oxadiazol-2-yl)phenyl]-2-methyl-phenyl]tetrahydropyran-3,4,5-triol] — within error, 9.8 ± 0.6 nM
- OC[C@H]1O[C@H](c2cccc(O)c2F)[C@@H](O)[C@@H](O)[C@@H]1O [Compound 190, (2R,3S,4R,5S,6R)-2-(2-fluoro-3-hydroxy-phenyl)-6-(hydroxymethyl)tetrahydropyran-3,4,5-triol] — within error, 24.1 ± 15.3 nM
- C#Cc1cc([C@H]2O[C@H](CO)[C@@H](O)[C@H](O)[C@@H]2O)ccc1OC [Compound 75, (2R,3S,4R,5S,6R)-2-(3-Ethynyl-4-methoxy-phenyl)-6-(hydroxymethyl)tetrahydropyran-3,4,5-triol] — 5.1-fold higher, 40 ± 11.3 nM
- OC[C@H]1OC(c2ccc(OCCc3cccc(F)c3)cc2)[C@@H](O)[C@@H](O)[C@@H]1O (some centres unmarked) [Compound 238] — within 1.5-fold, 9.7 nM
- O=[N+]([O-])c1ccc(Oc2cccc([C@H]3O[C@H](CO)[C@@H](O)[C@H](O)[C@@H]3O)c2)cn1 [Compound 257, (2R,3S,4R,5S,6R)-2-(hydroxymethyl)-6-[3-[(6-nitro-3-pyridyl)oxy]phenyl]tetrahydropyran-3,4,5-triol] — 2.4-fold higher, 19.2 ± 6.3 nM
- O=C(O)c1cc(C(=O)O)cc(-c2cccc([C@H]3O[C@H](CO)[C@@H](O)[C@H](O)[C@@H]3O)c2)c1 [Compound 153, 5-[3-[(2R,3S,4R,5S,6R)-3,4,5-trihydroxy-6-(hydroxymethyl)tetrahydropyran-2-yl]phenyl]benzene-1,3-dicarboxylic acid] — 11-fold higher, 88.7 ± 41.2 nM
- OC[C@H]1O[C@H](c2cc(O)ccc2OC(F)(F)F)[C@@H](O)[C@@H](O)[C@@H]1O [Compound 191, (2R,3S,4R,5S,6R)-2-(hydroxymethyl)-6-[5-hydroxy-2-(trifluoromethoxy)phenyl]tetrahydropyran-3,4,5-triol] — 4.7-fold higher, 37.4 ± 17.2 nM
- COCc1cc(-c2cccc([C@H]3O[C@H](CO)[C@@H](O)[C@H](O)[C@@H]3O)c2)ccc1-c1nnc(C)o1 [Compound 142, (2R,3S,4R,5S,6R)-2-(hydroxymethyl)-6-[3-[3-(methoxymethyl)-4-(5-methyl-1,3,4-oxadiazol-2-yl)phenyl]phenyl]tetrahydropyran-3,4,5-triol] — within error, 14.8 ± 5.9 nM
- CNC(=O)c1cccc(Oc2ccc(OC(F)(F)F)c([C@H]3O[C@H](CO)[C@@H](O)[C@H](O)[C@@H]3O)c2)c1 [Compound 201, N-methyl-3-[4-(trifluoromethoxy)-3-[(2R,3S,4R,5S,6R)-3,4,5-trihydroxy-6-(hydroxymethyl)tetrahydropyran-2-yl]phenoxy]benzamide] — 13-fold higher, 103 ± 1.8 nM
- OC[C@H]1O[C@H](c2cccc(-c3nc4ccccc4[nH]3)c2)[C@@H](O)[C@@H](O)[C@@H]1O [Compound 163] — 10-fold higher, 82.1 ± 0.6 nM
- OC[C@H]1O[C@H](c2ccc(Oc3ccccc3)cc2)[C@@H](O)[C@@H](O)[C@@H]1O [Compound 205, (2R,3S,4R,5S,6R)-2-(hydroxymethyl)-6-(4-phenoxyphenyl)tetrahydropyran-3,4,5-triol] — 4.9-fold higher, 38.7 ± 16.2 nM
- OCc1cccc([C@H]2O[C@H](CO)[C@@H](O)[C@H](O)[C@@H]2O)c1 [Compound 260, (2R,3S,4R,5S,6R)-2-(hydroxymethyl)-6-[3-(hydroxymethyl)phenyl]tetrahydropyran-3,4,5-triol] — 16-fold higher, 125 ± 52.6 nM
- CNC(=O)c1cccc(-c2ccc3cc([C@H]4O[C@H](CO)[C@@H](O)[C@H](O)[C@@H]4O)ccc3c2)c1 [Compound 154, N-methyl-3-[6-[(2R,3S,4R,5S,6R)-3,4,5-trihydroxy-6-(hydroxymethyl)tetrahydropyran-2-yl]-2-naphthyl]benzamide] — 2.3-fold higher, 18.4 ± 6.9 nM
- Cc1nnc(-c2ccc(-c3cccc([C@H]4O[C@H](CO)[C@@H](O)[C@H](O)[C@@H]4O)c3F)cc2)o1 [Compound 106, (2R,3S,4R,5S,6R)-2-[2-Fluoro-3-[4-(5-methyl-1,3,4-oxadiazol-2-yl)phenyl]phenyl]-6-(hydroxymethyl)tetrahydropyran-3,4,5-triol] — 3-fold higher, 23.4 ± 7.5 nM
- OC[C@H]1O[C@H](c2cccc(/C=C\c3cc(Cl)cc(Cl)c3)c2)[C@@H](O)[C@@H](O)[C@@H]1O [Compound 137, (2R,3S,4R,5S,6R)-2-[3-[(Z)-2-(3,5-dichlorophenyl)vinyl]phenyl]-6-(hydroxymethyl)tetrahydropyran-3,4,5-triol] — 3.8-fold higher, 29.9 ± 15.2 nM
- COC(=O)c1cccc(COc2cccc(C3O[C@H](CO)[C@@H](O)[C@H](O)[C@@H]3O)c2)c1 (some centres unmarked) [Compound 223] — 2.9-fold higher, 23.2 ± 1.6 nM
- CNC(=O)Cn1cnc2cc(-c3cccc([C@H]4O[C@H](CO)[C@@H](O)[C@H](O)[C@@H]4O)c3)ccc21 [Compound 152, N-Methyl-2-[5-[3-[(2R,3S,4R,5S,6R)-3,4,5-trihydroxy-6-(hydroxymethyl)tetrahydropyran-2-yl]phenyl]benzimidazol-1-yl]acetamide] — 5.5-fold higher, 43.8 ± 1.1 nM
- CNC(=O)c1ccc(Oc2cc(C)cc([C@H]3O[C@H](CO)[C@@H](O)[C@H](O)[C@@H]3O)c2)cc1 [Compound 199, N-methyl-4-[3-methyl-5-[(2R,3S,4R,5S,6R)-3,4,5-trihydroxy-6-(hydroxymethyl)tetrahydropyran-2-yl]phenoxy]benzamide] — within error, 8.3 ± 2.2 nM
- OC[C@H]1O[C@H](c2cccc(/C=C/c3cc(Cl)cc(Cl)c3)c2)[C@@H](O)[C@@H](O)[C@@H]1O [Compound 138, (2R,3S,4R,5S,6R)-2-[3-[(E)-2-(3,5-dichlorophenyl)vinyl]phenyl]-6-(hydroxymethyl)tetrahydropyran-3,4,5-triol] — 4.2-fold higher, 32.9 ± 6.3 nM
- O=C(COc1ccc(C2O[C@H](CO)[C@@H](O)[C@H](O)[C@@H]2O)cc1)C1CC1 (some centres unmarked) [Compound 235] — 1.8-fold higher, 14.1 ± 0.3 nM
- Cc1nc(-c2ccc(-c3cccc([C@H]4O[C@H](CO)[C@@H](O)[C@H](O)[C@@H]4O)c3)cc2)no1 [Compound 175] — within 1.5-fold, 10.2 ± 0.04 nM
- OC[C@H]1O[C@H](c2cccc(-c3ccc(-c4cnco4)cc3)c2)[C@@H](O)[C@@H](O)[C@@H]1O [Compound 119, (2R,3S,4R,5S,6R)-2-(hydroxymethyl)-6-[3-(4-oxazol-5-ylphenyl)phenyl]tetrahydropyran-3,4,5-triol] — 2.5-fold higher, 19.5 ± 8.8 nM
- Cc1cccc(COc2ccc(C3O[C@H](CO)[C@@H](O)[C@H](O)[C@@H]3O)cc2)n1 (some centres unmarked) [Compound 228] — within error, 9.2 ± 0.04 nM
- CNC(=O)c1cc(C#Cc2cccc([C@H]3O[C@H](CO)[C@@H](O)[C@H](O)[C@@H]3O)c2)cc(C(=O)NC)c1 [Compound 85, N1,N3-Dimethyl-5-[2-[3-[(2R,3S,4R,5S,6R)-3,4,5-trihydroxy-6-(hydroxymethyl)tetrahydropyran-2-yl]phenyl]ethynyl]benzene-1,3-dicarboxamide] — lower, < 5 nM
- OC[C@H]1O[C@H](c2cccc(-c3nc4c(C(F)(F)F)cccc4[nH]3)c2)[C@@H](O)[C@@H](O)[C@@H]1O [Compound 171] — 4.1-fold higher, 32.1 ± 19.1 nM
- CC(=O)c1ccc(Oc2cccc([C@H]3O[C@H](CO)[C@@H](O)[C@H](O)[C@@H]3O)c2)cc1 [Compound 186, 1-[4-[3-[(2R,3S,4R,5S,6R)-3,4,5-trihydroxy-6-(hydroxymethyl)tetrahydropyran-2-yl]phenoxy]phenyl]ethanone] — within error, 12.3 ± 8.9 nM
- COC(=O)c1ccc(CCc2cccc([C@H]3O[C@H](CO)[C@@H](O)[C@H](O)[C@@H]3O)c2)cc1 [Compound 103, Methyl 4-[2-[3-[(2R,3S,4R,5S,6R)-3,4,5-trihydroxy-6-(hydroxymethyl)tetrahydropyran-2-yl]phenyl]ethyl]benzoate] — within error, 9.7 ± 4.5 nM
